Experimental data from ChEMBL document CHEMBL3507680, “University of Dundee, Gates Library screen for HepG2 cell viability”.

Assay: Human HepG2 cell viability assay in 384 well format
Format: toxicity, cell-based
Set-up: dose 125 nL, time 70.5 hour; cytotoxicity at 70.5 h: concentration not given beside the values
Conditions: HepG2 cells, read-out: Inhibition

Point of comparison: `Cc1ccc(N2CC3(CCN(Cc4nccn4C)C3)CC2=O)s1` (centres undefined), cytotoxicity at 70.5 h -14.5%. Against it:
- Cc1cccc(C(=O)N2CCCn3c(CN4CCCCC4)nnc3C2)c1 — higher, -11.1%
- Cn1nc(Cn2ccnc2)c2c1CN(C(=O)c1ccc[nH]1)C2 — higher, -10.6%
- CCN(C)c1ncnc2c1CCN(C(=O)c1cccn1C)CC2 — higher, 21%
- O=C(c1ccoc1)N1CCCn2nnc(COCC3CC3)c2C1 — higher, -4.24%
- CNC(=O)[C@@]12CCO[C@@H]1CCN(S(=O)(=O)c1ccc(C)cc1)C2 — higher, -4.45%
- Cn1cc(C[C@H]2[C@H](N3CCOCC3)CCN2C(=O)c2ccc[nH]2)cn1 — lower, -20.8%
- O=C(c1cnccn1)N1CC[C@H]2[C@@H]1CCC(=O)N2c1cccnc1 — lower, -17.4%
- CS(=O)(=O)CC(=O)N1C[C@@H]2CN(Cc3ccoc3)CCO[C@@H]2C1 — higher, -12%
- Cc1noc([C@@H]2CCO[C@@H]3CCN(Cc4cccs4)C[C@@H]32)n1 — higher, 9.6%
- Cc1cnc(N2Cc3cnn(Cc4ccc(F)cc4)c3C2)nc1N(C)C — higher, -0.641%
- Cc1ccc(NC(=O)CNC(C)CN2CCOCC2)c(F)c1 (centres undefined) — higher, -9.12%
- Cc1ccccc1CN(CCN(C)C)Cc1ccc(C(=O)O)cc1 — higher, -5.98%
- Cn1ncc2c(N3CCS(=O)(=O)CC3)nc(C3CCCC3)nc21 — higher, -6%
- CC(C)[C@H]1COC(=O)N1Cc1noc(-c2ccccc2)n1 — higher, -7.59%
- O=C(Nc1cnn(CC(=O)N2CCCO2)c1)c1ccccc1 — higher, 8.2%
- O=C(NCCn1ccnc1C1CCOC1)c1cccnc1 (centres undefined) — higher, -1.19%
- O=S(=O)(NCC1COc2ccccc2C1)N1CCCC1 (centres undefined) — higher, -2.58%
- O=C(C1CCS(=O)(=O)CC1)N1CCC(c2ccc(F)cc2)C1 (centres undefined) — higher, 4.45%
- CC(=O)c1cnc(NCCCN2CCOCC2)nc1C — higher, 14.7%
- Cc1cc(NC2CCN(CC3CCCO3)CC2)n2nc(C)c(C)c2n1 (centres undefined) — higher, 4.66%
- CC(C)CN(Cc1ccc(-n2cncn2)cc1)Cc1ccccn1 — higher, -10.8%
- CSCCC(=O)NCc1cc2n(n1)CCCN(C1CCCCC1)C2 — higher, 34.5%
- Cc1n[nH]c(C)c1Sc1ccccc1NC(=O)N1CCOCC(O)C1 (centres undefined) — higher, 2.32%
- CN(Cc1cccc(CCN)c1)Cc1cccc2ncccc12 — lower, -16.2%
- CC(C)(O)CCc1cccc(C(=O)N2CCC[C@H]2C(N)=O)c1 — higher, 29.2%
- COCC[C@]1(O)CCN(c2ncc(Cl)cc2F)C[C@H]1C — higher, -12.3%
- O[C@@]1(CNCCCNc2cccnc2)CCCN2CCCC[C@@H]21 — higher, -5.62%
- COC1CCN(S(=O)(=O)N2CCCC(c3cccc(C(=O)O)c3)C2)CC1 (centres undefined) — higher, -9.91%
- COc1ncc(-c2ccc(C(N)=O)cc2)c(OC)n1 — higher, -8.59%
- CCN1CCc2[nH]cnc2C12CCN(C(=O)CCc1cccs1)CC2 — higher, 6.97%
- COCc1nc(N(C)CCSc2ccccc2)c2cnn(C)c2n1 — higher, -5.78%
- Cc1ccc(CN(CCN(C)C)Cc2ncc[nH]2)s1 — higher, -5.13%
- O[C@H]1CCCC[C@@H]1N1CCN(CCCc2ccc3c(c2)OCO3)CC1 — higher, -6.44%
- COc1c(F)cc(CN2CCC3(CC2)CN(C)C(=O)O3)cc1Cl — higher, -7.54%
- Cc1nc(N2CCC(C(O)c3nccn3C)CC2)c2cccnc2n1 (centres undefined) — higher, 18.9%
- COCCN1CCCC(O)(CN2CCN(c3ccncc3C)CC2)C1=O (centres undefined) — higher, 5.87%
- CCOC(=O)N1CCC(N2Cc3ncccc3C2=O)CC1 — higher, 3.24%
- CN(CCn1ccc2ccccc21)C(=O)Cc1nnn[nH]1 — higher, 17.9%
- O=C1CC(NCc2cnc(-c3cccs3)nc2)CN1c1ccccc1 (centres undefined) — higher, -2.68%
- CCN(Cc1nc(C)no1)C(=O)C1CC(=O)N(Cc2cccnc2)C1 (centres undefined) — higher, 17.6%
- COc1cccc(CN2CCN(c3noc(C(C)C)n3)CC2)c1F — higher, 1.87%
- CCOc1ncccc1Cn1cc(-c2nccn2C)nn1 — higher, -10.3%
- O=C1CCC(C(=O)N2CCOC(Cc3ccccc3Cl)C2)=NN1 (centres undefined) — higher, -8.63%
- c1c(-c2nc(CN3CCOCC3)no2)nnn1CC1CCCCC1 — higher, -13.5%
- CCn1nc(CC(C)C)cc1C(=O)NCCS(=O)(=O)N(C)C — higher, 3.89%
- CC(=O)NCCCc1ncnn1-c1cccc(Cl)c1 — higher, 1.57%
- CN(C)C(=O)N1CCN(C(=O)Nc2nc(-c3ccccc3)ns2)CC1 — higher, -5.92%
- COCCCN1C(=O)CC[C@H]2CN(Cc3ccc4nonc4c3)CC[C@H]21 — higher, -5.42%
- CC(C)=CCN1C[C@H]2CC[C@@H]1CN(C(=O)Cc1c(C)nc(C)[nH]c1=O)C2 — higher, 1.03%
- CN(C)c1cnn(CC(=O)N2Cc3ccccc3C2)c(=O)c1 — higher, 22%
- O=C1C[C@H]2CC[C@@H](CN1)N2C1CCOCC1 — higher, -1.49%
- O=c1[nH]ccc2cc(-c3cc(O)cc(CCC4CCCCN4)c3)ccc12 (centres undefined) — higher, -7.29%
- Cc1sc2nc(CCN)nc(N(CCN(C)C)CC3CCCO3)c2c1C (centres undefined) — higher, 5.16%
- Cc1noc(C(C)N(C)CC(=O)NCCc2ccc(Cl)cc2)n1 (centres undefined) — higher, 24.6%
- CC(=O)NCc1cc2n(n1)CCN(Cc1ccccc1OC(F)(F)F)C2 — higher, -3.35%
- COc1cc(C(=O)NCCS(=O)(=O)N(C)C)c2ccccc2n1 — higher, 1.37%
- CC1(C)CC(CC(=O)N2CC(C)(C)[C@@](C)(O)C2)CC(C)(C)N1 — higher, 13%
- Cc1ccccc1Oc1ncccc1CNS(=O)(=O)N(C)C — higher, -1.73%
- Cc1ccoc1C(=O)N1Cc2c(Cn3ccnc3)nn(C)c2C1 — higher, 20.4%
- O=C(c1ccccc1F)N1CCCn2c(CN3CCCCC3)nnc2C1 — higher, -6.86%
- Cc1cccc(COC[C@@H]2CC[C@H]3[C@H](CCN3C(=O)CC3CC3)O2)n1 — higher, -6.33%
- O=C(c1cccc(Cl)c1)N1CC[C@H]2[C@H]1CCN2CC1CC1 — higher, -9.45%
- O=C(c1ccccc1)N1CCCn2c(CN3CCCCC3)nnc2C1 — higher, 26.2%
- Cn1ccnc1CN1CCC2(CC1)CN(c1cncnc1)C(=O)CO2 — higher, -3.27%
- Cn1ccnc1CN1CCC2(CC(=O)N(c3ccsc3)C2)C1 (centres undefined) — higher, -8.8%
- CCN(C)c1ncnc2c1CCN(CC1CCOC1)CC2 (centres undefined) — higher, -8.27%
- Cn1cc(C(=O)N2CC[C@@H]3[C@@H]2CCN3Cc2ccccc2)cn1 — lower, -15%
- O=C(c1cscn1)N1CCC2(CCN(Cc3nccs3)CC2)C1 — lower, -23.5%
- CCN1C(=O)CCC12CCCN(Cc1nccs1)C2 (centres undefined) — higher, -13.8%
- CN1C(=O)CCC12CCCN(Cc1nccs1)C2 (centres undefined) — higher, 23.1%
- O=C(Cc1ccccn1)N1CCC2(CC1)CN(c1ncccn1)CCO2 — higher, -10.3%
- COCC1CN(C(=O)Cc2ccccn2)Cc2c1cnn2CC1CC1 (centres undefined) — higher, -13.1%
- Cc1noc(C)c1CN1C[C@@H](N(C)Cc2ccco2)[C@H]2OCCC[C@H]21 — higher, -6.48%
- Cc1noc(C)c1CN1CCN(C)c2ncccc2C1 — higher, -5.95%
- Cn1ccnc1CN1CCC2(CC(=O)N(c3ccccn3)C2)C1 (centres undefined) — higher, -10.7%
- O=C(NCc1ccccn1)[C@@H]1CC[C@@H]2[C@@H](CCN2c2ncc(F)cn2)O1 — higher, -11.3%
- Cn1cc(C(=O)N2CC[C@@H]3[C@@H]2CCN3Cc2ccncc2)cn1 — higher, -12.1%
- COc1ccc(CN2C[C@@H]3OCCN(CCN4CCCC4)[C@@H]3C2)cc1 — higher, 11.2%
